The values that follow come from patent US5444070A, “Phenyl substituted heterocyclic compounds” (NeuroSearch A/S, priority 1992, dated 1995).

The structures appear in SMILES notation. pIC50: −log10 of the molar value.

Data set [1] deals with reuptake of dopamine in synaptosomes of rat forebrain. As to the kind of experiment: inhibition of dopamine reuptake in synaptosomes of rat forebrain. Particulars: 3H-dopamine 1×10^-9 M, 10 min at 37° C., male Wistar rat forebrain synaptosomes; read-out: Dopamine reuptake inhibiting activity (IC50). In kind it is biochemical.
Experimental: Fresh whole forebrain (at 0°-4° C.) from male Wistar rats (150-200 g) is homogenized in a glass homogenizer with a teflon pestle in 20×volumes 0.32M sucrose. The homogenate is centrifuged at 1000×g (~2900 rpm) for 10 min. The pellet is discarded and the supernatant is used for uptake assays.
A Krebs Buffer (119 mM NaCl, 24 mM NaHCO3, 2.1 mM KCl, 1.2 mM KH2 PO4, 1.8 mM CaCl2, 2 mM MgSO4,7H2 O, 12 mM glucose) is equilibrated with an atmosphere of 96% O2 : 4% CO2 for at least 60 min at 37° C. To 5 ml Krebs-buffer 100 μl of the radioactivity is added (3H-dopamine 1×10^-9 M final concentration) and 100 μl test substance solution and 200 μl of tissue suspension. The samples are thoroughly mixed and incubated 10 min at 37° C. followed by 2 min at 0° C. After incubation the samples are poured directly onto Whatman GF/C glass fibre filters under suction and immediately washed with 2×5 ml ice-cold 0.9% saline (NaCl) buffer. To the filter is added 3 ml of scintillation fluid, and the amount of radioactivity on the filters is determined by conventional liquid scintillation counting.
Data set [2] deals with abnormal stereotyped behaviour. As to the kind of experiment: abnormal stereotyped behaviour. In kind it is in vivo, rat. Particulars: at every relevant dosing level tested. The source says:
Backward locomotion may occasionally be observed.
+=only stereotyped sniffing
++=stereotyped sniffing and episodic licking
+++=Continuous licking and/or biting gnawing

For orientation: pIC50 means −log10 of the IC50, conventionally taken in molar units. Turning to `CN1[C@H]2CC[C@@H]1[C@H](c1nc(-c3ccccc3)no1)[C@@H](c1ccc3ccccc3c1)C2` [(1R,2R,3S)-2-(3-phenyl-1,2,4-oxadiazol-5-yl)-3-(2-naphthyl)-tropane], in data set [1], the negative logarithm of the IC50 (pIC50) is 6.27.
Take `CN1[C@H]2CC[C@@H]1[C@H](c1nc(-c3ccccc3)no1)[C@@H](c1ccc(Cl)cc1)C2` [(1R,2R,3S)-2-(3-phenyl-1,2,4-oxadiazol-5-yl)-3-(4-chlorophenyl)-tropane]: in data set [1], the pIC50 was 6.48.
As for `Cc1ccc([C@H]2C[C@@H]3CC[C@H]([C@@H]2c2nc(-c4ccccc4)no2)N3C)cc1` [(1R,2R,3S)-2-(3-phenyl-1,2,4-oxadiazol-5-yl)-3-(4-methylphenyl)-tropane], the negative-log IC50 (pIC50) in data set [1] was 6.02.
In the case of `COC(=O)[C@@H]1[C@@H](c2ccc(F)cc2)C[C@@H]2CC[C@H]1N2C` [trans isomer of Win 35,428, (1R,2R,3S)-2-carbomethoxy-3-(4-fluorophenyl)tropane, reference compound], in data set [2], the “side effects: abnormal stereotyped behaviour” value was “essentially or totally devoid of side effects”.
